Patent US9611314B2, “Functional peptide analogs of PEDF” (The Penn State Research Foundation, priority 2013, dated 2017)
Where a SMILES comes first, the peptide text is derived from it. Where no end group is shown, it is not given here. [ ]: non-standard residue; d: D form. The star is where a group is joined. 1Nal = N[C@@H](Cc1cccc2ccccc12)C(=O)O; AEEA = NCCOCCOCC(=O)O; Butyryl = CCCC(=O)*

Tests used:
[1] = test system: ZO1 and occludin; test: qPCR of tight junction mRNA (potential to reduce vascular leakage); format: cell-based; details: compared to P78 and SpxA1
Protocol: (§1) Briefly, to test efficacy of the compounds in preventing cell death, experiments were performed to screen for the ability of each analog to: 1) increase cellular bioenergetic levels in an ATP assay and 2) reduce cell death in an LDH assay. To test the action of each analog on inflammatory processes, Luminex bead arrays were used to examine the ability of each analog to decrease production of inflammatory cytokines. To test for the potential of each analog to reduce vascular leakage, qPCR was used to examine the ability of each analog to increase mRNA levels of ZO1 and occludin, two junction proteins essential to vascular integrity. To test peptide stability in the vitreous, the analogs were incubated with dissected vitreous humor and the samples were analyzed at various time points using Maldi-TOF. These tests allowed for the systematic selection of analogs having the least toxicity and the strongest potential to reduce pathology in vivo.
To test for the potential of each peptide (81-2, 81-5, 81-12, 81-13 and 81-20) to reduce vascular leakage, qPCR was used to examine the ability of each analog to increase mRNA levels of Z01, a junction protein essential to vascular integrity (FIG. 4A).

[2] = test system: human ARPE19 cells; test: Cell viability by ATP levels (CellTiter-Glo), serum starvation or H2O2; format: cell-based; details: for ATP viability tests: selection for in vivo studies: serum starvation and 300 uM H2O2, 25 nM peptide, 48 hr
Protocol: (§2) The analogs were tested for their efficacy in reducing levels of TNFα, IFNγ, VEGF-A and increasing cell viability in in vitro assays. Efficacy was compared to both non-treated oxidative stressed controls and the control standard P78.
as §1
The effects of the peptides to increase cell viability by increasing levels of ATP were tested in two models of cell death: (i) serum starvation; (ii) oxidative stress caused by hydrogen peroxide toxicity (300 uM). With respect to serum starvation, human ARPE19 cells were grown to ˜85% confluency in 10% serum containing medium after which the cells were placed in serum-free medium for 48 hr in the presence or absence (control) of 25 nM of each peptide. For ATP assay, CellTiter-Glo® reagents were used and luminescence was determined after 12 min spectrophotometrically (n=4) (FIG. 2A). With respect to oxidative stress, human ARPE19 cells were grown to ˜85% confluency in 10% serum containing medium. The cells were then treated with 300 uM H2O2 for 48 hours in the presence or absence (control) of 25 nM of each peptide. Levels of ATP were measured and % luminescence to controls and P78 was quantitated (n=4). Changes to ATP levels are plotted against control values and p values are given to P78 (FIG. 2B).

[3] = test system: HUVEC; test: VEGF-mediated HUVEC tube formation on human dermal fibroblasts; format: cell-based; details: 100 nM peptide, 4 ng/ml VEGF, 12 days; compared to VEGF
Protocol: Human dermal fibroblasts were cultured at 1×10^5/well in IncuCyte seeding medium (Essen Bioscience) in 96 wells plates for 1 hr. Medium was removed and replaced with complete IncuCyte growth medium (Essen Bioscience). Human umbilical vein endothelial cells (HUVEC) containing a green fluorescent marker (HUVEC CytoLight green) cells at 2000 cells/well were/well to attached dermal fibroblasts cultures and placed in the IncuCyte Zoom fluorescent and phase contrast multiplex imaging incubator (Essen BioScience). Twenty four hours later 4 ng/ml VEGF was added to all wells and 100 nM/ml PEDF peptides added to test wells. Cultures containing VEGF alone were used as positive controls and those containing 100 μM Suramin (VEGF inhibitor) used as negative controls. The cultures were placed at 37° C. in the Incucyte Zoom and HUVEC tube length networks measured over a 12 day incubation period using the Incucyte CellPlayer Angiogenesis software module and interface systems. Media was refreshed every 3-4 days.

[4] = test system: TNFα; test: TNFα secretion by RPE cells, Luminex; format: cell-based, human
Protocol: as §2, §1
(§3) Experiments were designed to assess the effects of each peptide compared to P78 on the inflammatory and vascular permeability/angiogenesis cytokines TNFα, IFNγ, and VEGFA. […]

[5] = test system: VEGFA; test: VEGFA secretion by RPE cells, Luminex; format: cell-based, human; details: for effect in reducing VEGFA levels compared to P78: 25 nM peptide, serum starvation
Protocol: as §2, §1
Experiments were designed to assess the effects of each peptide compared to P78 on the inflammatory and vascular permeability/angiogenesis cytokines TNFα, IFNγ, and VEGFA. Briefly, human retinal RPE cells were grown to ˜75% confluency in 10% serum containing medium. The cells were then exposed to serum starvation in the presence or absence (control) of 25 nM of each peptide including the prototype P78 and the active fragment of P78, SpxA1. The supernatant from each treatment was tested for effects on the secretion of TNFα, IFNγ, and VEGFA. The data represent the percent change to the control samples and p values are given for each peptide in relationship to the P78 treatment (FIGS. 3A through 3B).

[6] = test system: IFNγ; test: IFNγ secretion by RPE cells, Luminex; format: cell-based, human
Protocol: as §2, §1, §3

[7] = test system: RPE cultures; test: In vitro tests of inflammation, angiogenesis and cell viability, summarised together; format: cell-based, human; details: assays other than VEGFA
Protocol: as §2
The analogs disclosed in Table 1 were assayed for improved stability and efficacy in in vitro assays for inflammation, angiogenesis, and cell death, which are the three leading pathological features of diabetic retinopathy.
as §1, with “These tests allowed for the systematic selection of analogs having the least toxicity and the strongest potential to reduce pathology in vivo.” left out

[8] = in vivo; set-up: species or system rodents; details: topical or ocular, 2 ug
Protocol: In addition, bioavailability studies of the peptides in rodent eyes were conducted and the results were compared to the control standard P78 peptide. For example, the peptides were tested in bioavailability studies in rodents at 1, 2, 4, 8 hrs (n=4 each peptide/time pt). The animals were given a single eye drop containing 2 μg of each peptide. At each time point the animals were sacrificed, vitreous harvested, and bioavailability assessed by Maldi TOF.

[9] = test system: VEGF; test: Vitreous VEGF after 15 wks eye drops (Luminex); format: in vivo, Ins2Akita mouse; details: 5 μg eye drop 2×/wk for 15 wks, relative to diabetic controls
Protocol: From the in vitro P78 peptide analog screening studies, five structurally diverse analogs with best biological activity were selected to test their efficacy in the diabetic mouse eye. In vivo effects of these peptides were tested in the Ins2Akita mouse model of DR, a well-characterized DR model that has a mutation in the insulin gene. Heterozygote Ins2Akita mice (Jackson Lab) become hyperglycemic (HG) at ˜4.5 wks of age. RGC death and inflammation occur within the first 4-6 wks of DR and vascular pathology is first noticed ˜13 wks after the onset of diabetes. The studies were designed to identify peptide candidates with pleotrophic effects on cell death, inflammation, and vascular leakage in the diabetic retina.
Male hyperglycemic mice with blood glucose levels >300 mg/dL were used and treatments carried as previously described for P78 (Liu et al., 2012, Mol. Med., 18(1): 1387-1401). Diabetic mice were treated 2×/wk for 15 wks at the onset of HG using a single dose of 5 μg/5 μl artificial tears for each drug, a dose at which P78 is effective. Both eyes received the same treatment to avoid drug cross contamination between the eyes of an individual animal. […]
Levels of VEGF were also quantitated in the vitreous of the 15 wks peptide treated and control groups using the Luminex bead technology. […]

[10] = Peptide bioavailability in mouse vitreous after 5 μg eye drop (MALDI TOF); format: in vivo, C57BL/6 mice; details: compared to P78 and SpxA1
Protocol: Before the longitudinal efficacy studies were carried out in vivo, the bioavailability of the five analogs was examined in comparison to the parent compound P78 and its active 29-mer derivative, SpxA1.
Bioavailability of each peptide was determined in vitreous samples obtained at various time points after eye drops were given. Vitreous samples were harvested from enucleated eyes and immediately analyzed by mass spectrometry. Spectral intensities were compared to spectra of known concentrations of each analog to calculate amounts of peptides reaching the vitreous. The eye drops administered to normal mouse eyes contained 5 μg of the test compound. Bioavailability was studied at three time points: 1, 4, 6 hr using four animals/time point (n=8 eyes). The vitreous was rapidly dissected from each group after the drops were given and immediately analyzed by MALDI TOF.

[11] = change versus control standard P78
[12] = change versus non-treated stressed control (C)

L-1-NALGADERTESIIHR ([1Nal]GADERTESIIHR) [Peptide 81-20]
ZO1 mRNA expression [1]: higher expression of ZO1 compared to P78 and SpxA1 | ATP viability tests: selection for in vivo studies [2]: good candidates for the in vivo studies | inhibition of HUVEC tube formation [3]: prevented tube formation compared to VEGF but less effective

{BA*}VLLSPLSVATALSAISIGADARTASIIHR{PEG*} (VLLSPLSVATALSAISIGADARTASIIHR[AEEA]; not fully specified (N-terminus); printed as {BA*}VLLSPLSVATALSAISIGADARTASIIHR{PEG*}) [Peptide 81-4, butyric acid on N-terminus, PEG2-CH2COOH at C-terminus]
*TNFα % to P78 [4, 11]: −8% | *TNFα % to C [4, 12]: −2% | *VEGF % to P78 [5, 11]: −0% | *VEGF % to C [5, 12]: −11% | *IFNγ % to P78 [6, 11]: −11% | *IFNγ % to C [6, 12]: −15% | *ATP % to P78 [2, 11]: 9% | *ATP % to C [2, 12]: +7%

FGADERTESIIHR [Peptide 81-19]
effect on the other assays compared to P78 [7]: less effective than P78 | effect in reducing VEGFA levels compared to P78 [5]: significantly better effects in reducing VEGFA levels

SALSLGADERTESIIHR [Peptide 81-1, SALSLGADERTESIIHR]
level at 4 h [8]: 1800 ng/mL

VLLSPLSVATALSAISIGADARTASIIHR [Peptide 81-10]
effect on the other assays compared to P78 [7]: less effective than P78 | effect in reducing VEGFA levels compared to P78 [5]: significantly better effects in reducing VEGFA levels

VLLSPLSVATALSALSLGADERTESIIHRALYYDLISSPDIHGT [Peptide P-78, reference compound]
level at 4 h [8]: 1200 ng/mL

SAISIGADERTESIIHR [Peptide 81-2, SAISIGADERTESIIHR]
level at 4 h [8]: 2000 ng/mL

{BA*}NFGYDLYRVRSSMSPTTNSALSLGADERTESIIHR{PEG*} (not fully specified (N-terminus, C-terminus); printed as {BA*}NFGYDLYRVRSSMSPTTNSALSLGADERTESIIHR{PEG*}) [Peptide 81-12, P60 + 81-1, butyric acid at N-terminus, PEGylated at C-terminus]
ZO1 mRNA expression [1]: higher expression of ZO1 compared to P78 and SpxA1 | VEGF levels in the vitreous [9]: slightly but significantly more effective | ATP viability tests: selection for in vivo studies [2]: good candidates for the in vivo studies | inhibition of HUVEC tube formation [3]: prevented tube formation compared to VEGF but less effective

SAISIGADARTASIIHR [Peptide 81-3, SAISIGADARTASIIHR]
level at 4 h [8]: 2280 ng/mL

CCCC(=O)N[C@@H](CO)C(=O)N[C@@H](C)C(=O)N[C@H](C(=O)N[C@@H](CO)C(=O)N[C@H](C(=O)NCC(=O)N[C@@H](C)C(=O)N[C@@H](CC(=O)O)C(=O)N[C@@H](C)C(=O)N[C@@H](CCCNC(=N)N)C(=O)N[C@H](C(=O)N[C@@H](C)C(=O)N[C@@H](CO)C(=O)N[C@H](C(=O)N[C@H](C(=O)N[C@@H](Cc1c[nH]cn1)C(=O)N[C@@H](CCCNC(=N)N)C(=O)NCCOCCOCC(=O)O)[C@@H](C)CC)[C@@H](C)CC)[C@@H](C)O)[C@@H](C)CC)[C@@H](C)CC [Peptide 81-5, {BA*}SAISIGADARTASIIHR{PEG*}] (Butyryl-SAISIGADARTASIIHR[AEEA]-OH)
stability profile in the vitreous after 6 hr [10]: best stability profile

VLLSPLSVATALSALSLGADERTESIIHR [SpxA1]
level at 4 h [8]: 920 ng/mL
